In ChEMBL document CHEMBL3507680, “University of Dundee, Gates Library screen for HepG2 cell viability”:

Test: Human HepG2 cell viability assay in 384 well format
Assay type: toxicity, cell-based
Design: dose 125 nL, time 70.5 hour; cytotoxicity at 70.5 h: concentration not given beside the values
Conditions: HepG2 cells, read-out: Inhibition

Row | Structure (SMILES) | cytotoxicity at 70.5 h [%]
1 | NC(=O)CCn1cc(CNCc2csc(N)n2)c2ccccc21 | -2.33
2 | COCc1cn(C2CCN(Cc3ccc(Cl)s3)CC2)nn1 | -12.4
3 | CC(C)c1nc(C(=O)N2C[C@H](C(C)C)[C@@H](N)C2)cs1 | -0.955
4 | CC(C)(C)n1ccc(C(=O)N2CCCC(c3ccc(C(=O)O)cc3)C2)c1 (stereo not given) | -13.3
5 | CC(=O)CCCC(=O)N(Cc1ccsc1)CC(C)C | -5.67
6 | O=C(NCCCc1ccccn1)c1cn(CCN2CCNCC2)nn1 | -9.59
7 | CCN(C)S(=O)(=O)N[C@H]1CN(c2ccc(F)cn2)C[C@@H]1C(C)C | -1.25
8 | Cc1cc(C(=O)N2CCc3[nH]cnc3C2C(=O)O)c(-c2ccccc2)o1 (stereo not given) | -3.87
9 | Cc1ccccc1SCC(=O)N[C@H]1CC[C@H](n2cnnc2)CC1 | -5.74
10 | CCN1CC2(CCC1=O)CCN(CCc1nccn1C)CC2 | -6.75
11 | CC[C@H](C)[C@@H](CO)NC(C)Cc1ccc(Cl)cc1 (stereo not given in full) | -2.7
12 | c1cc(CN2CCC(n3cc(CN4CCCC4)nn3)CC2)cs1 | -5.26
13 | Cc1cc(C)n2ncc(CN3CCC(n4cc(CCO)nn4)CC3)c2n1 | -1.82
14 | CCCN(Cc1nccn1C)C(=O)c1cc(C(C)C)on1 | 3.45
15 | CCc1cnc(NCCS(=O)(=O)N(C)C)nc1 | 20.6
16 | Cc1noc(CN2C[C@H]3CC[C@@H]2CN(C2Cc4ccccc4C2)C3)n1 | 4.75
17 | CC(C)CN1CCc2[nH]cnc2C12CCN(C(=O)c1ccccn1)CC2 | -3.63
18 | COc1ccccc1OC1CCN(C(=O)c2cnc(C)s2)CC1 | -4.88
19 | CC(C)N(Cc1nccn1C)C(=O)c1cnc(O)cn1 | -3.41
20 | c1ccc(C2CCCN2C2CCSCC2)nc1 (stereo not given) | 0.0849
21 | O=c1[nH]cnc2c1CCN(S(=O)(=O)c1ccc(OC(F)(F)F)cc1)C2 | -9.4
22 | CC(C)CN1CCCn2nc(CNC(=O)OCc3ccccc3)cc2C1 | -5.5
23 | COc1ccc(N2CCN(C(=O)[C@H]3[C@@H]4CNC[C@@H]43)CC2(C)C)cc1 | 18.4

Row | Structure (SMILES) | cytotoxicity at 70.5 h [%]
24 | CC(C)(C)c1ccc(C(=O)C2CCCN(C(=O)CNS(C)(=O)=O)C2)cc1 (stereo not given) | 23.1
25 | CCc1cc(N(C)Cc2ncc[nH]2)nc(N2CCOCC2)n1 | -15.9
26 | COc1ccccc1C1CCN(c2ccc3cc[nH]c3n2)CC1 | -7.33
27 | Cc1ccccc1C(C(=O)O)N(C)CC1CCOCC1 (stereo not given) | -2.17
28 | Cc1csc2c(N3CCC(NCCc4ccnn4C)CC3)ncnc12 | 6.94
29 | O=C(c1ccc2cccnc2n1)N(Cc1ccsc1)CC1CCCO1 (stereo not given) | -12.4
30 | CCN1CCN(C(=O)c2cnc(Cc3c(Cl)cccc3Cl)nc2O)CC1 | -4.18
31 | CC(C)[C@H]1CN(C2Cc3ccccc3C2)C[C@@H]1NS(=O)(=O)N(C)C | 0.396
32 | COCCN1CCC(CN(C)c2nc3c(s2)c(C)nn3C)CC1 | 13.5
33 | Cc1ccc(C)c(C(NC2CCCC2)c2cccnc2)c1 (stereo not given) | 7.4
34 | COCCOCC(=O)N(Cc1cccc(C)c1)C(C)C | 3.91
35 | Cc1ncsc1CCC(=O)NCc1csc(N(C)C)n1 | -1.1
36 | CCn1cncc1CNC(=O)c1ccc(C2CCCN2C(=O)COC)s1 (stereo not given) | -12
37 | CSCc1noc(CNC2CCCC(C)(C)C2)n1 (stereo not given) | -5.82
38 | CCSc1ncc(CN2CCC(O)(CN3CCOCC3)C(C)(C)C2)cn1 (stereo not given) | 38.5
39 | Cc1nc2ccccc2n1Cc1cc(C(=O)N(C)C2CCOCC2)no1 | 12.4
40 | CC(C)CN1CCCn2nc(CNC(=O)NC(C)(C)C)cc2C1 | -6.75
41 | COCCN(Cc1nccs1)c1nc2c(s1)c(C)nn2C | -10.8
42 | Nc1cc(N2CCCC(COc3ccc(F)cc3)C2)ncn1 (stereo not given) | -12.7
43 | CN(Cc1nccn1C)C1CCCN(CCCc2ccccc2)C1 (stereo not given) | -6.62
44 | c1ccc(C(CC2CN(Cc3ncc[nH]3)CCO2)c2ccccc2)cc1 (stereo not given) | 0.214
45 | Cc1cc(C)n(CCC2CC(=O)Nc3cc(O)c(C)cc32)n1 (stereo not given) | -5.9
46 | CCc1cc(N2CCC3(CCCNC3=O)C2)nc(N2CCOCC2)n1 (stereo not given) | -4.73

Row | Structure (SMILES) | cytotoxicity at 70.5 h [%]
47 | Cc1nc[nH]c1CN1CCCC(CNC(=O)c2ccc(N)nc2)C1 (stereo not given) | -6.47
48 | CCNC(=O)N1C[C@@H](NC(C)=O)[C@H](c2ccc(C)o2)C1 | -2.82
49 | Cc1cccc(OCC2CCCN(C(=O)Cn3ccccc3=O)C2)c1 (stereo not given) | 5.85
50 | CCCc1cc(C(=O)N2C[C@H](O)[C@@H](N3CCCC3)C2)ccn1 | 16.4
51 | CCSC(C)C(=O)N1CCC(c2nn(C)c(=O)n2-c2ccccc2)CC1 (stereo not given) | -7.97
52 | CCC(Cn1ccnc1)n1cnc2c(C)csc2c1=O (stereo not given) | -14.3
53 | CCn1cnnc1C1CCN(C(=O)c2cccc(OC)c2OC)CC1 | -7.68
54 | CCn1cnnc1C1CCN(C(=O)c2cc(OC)ccc2OC)CC1 | 1
55 | CC(C)c1cc(NC(=O)c2cccnc2)[nH]n1 | -10.3
56 | Cc1cnn(CCNCC(=O)NC(C)c2ccc3c(c2)OCCO3)c1 (stereo not given) | -3.11
57 | Cc1nccn1C1CCCN(C(=O)c2ccc3nncn3c2)C1 (stereo not given) | -4.02
58 | CCn1cnnc1C1CCN(C(=O)c2ccoc2C)CC1 | 11.9
59 | Cc1nc(CN(C)C2CCCN(c3cccnn3)C2)nc2ccccc12 (stereo not given) | 1.21
60 | O=C1NCCN1C1CCN(Cc2nc(-c3ccccc3)no2)CC1 | 13.9
61 | Cc1nc(CN(C)C2CCCN(c3ccccc3)C2)no1 (stereo not given) | -3.56
62 | CCCc1noc(CNc2ccc(C(=O)N3CCCC3)cc2C)n1 | -0.0635
63 | Cc1cc(C)n(CC2CN(CC3CCCC3)CCO2)n1 (stereo not given) | -3.55
64 | Cc1cnn(C2CN(Cc3nc(-c4cccnc4)no3)C2)c1 | 1.92
65 | CC(=O)N(C)c1nc(CN2CCCC2Cn2nc(C)cc2C)cs1 (stereo not given) | -3.11
66 | CC(=O)Nc1nc(CN2CCCCC2Cn2cncn2)cs1 (stereo not given) | 0.302
67 | Cc1cnn(C2CN(Cc3nc(-c4ccccc4C)no3)C2)c1 | 11
68 | COCCOc1ccc(Cl)c(C(=O)N2CCN(CCO)CC2)n1 | -2.95
69 | OCCN1CCN(Cc2coc(-c3cccc(F)c3)n2)CC1 | -7.98

Row | Structure (SMILES) | cytotoxicity at 70.5 h [%]
70 | CCn1cc(CN2CCCN(C(=O)CCc3cnn(C)c3)CC2)cn1 | -11.5
71 | O=C(c1ccoc1)N1CCC(Nc2cccnn2)CC1 | -8.84
72 | CC(C)c1nn(C)c(N(C)C)c1CNCC(O)c1ccccc1 (stereo not given) | -10.1
73 | Cn1ncc2c(=O)[nH]c(CN(Cc3ccco3)C3CC3)nc21 | -16.2
74 | CN(Cc1nc2c(cnn2C)c(=O)[nH]1)Cc1ccco1 | 7.12
75 | Cc1nc2cc(O)nn2c(C)c1CCC(=O)NCCc1ccccc1 | 10.3
76 | Cc1nc2cc(O)nn2c(C)c1CCC(=O)NCCCC(C)C | -3.79
77 | CC(C)Cc1cc(NC(=O)c2n[nH]c3ccccc23)n(C)n1 | -5.98
78 | Cc1cnn(C2CCCN(C(=O)c3ccc(NC4CC4)nc3)C2)c1 (stereo not given) | -13.3
79 | COC(=O)c1cccn1C1CCN(C(=O)c2ccc(C)cc2O)CC1 | -8.93
80 | CC(C)Cc1cc(NC(=O)c2cc(Cl)c[nH]2)n(C)n1 | -8.43
81 | Cc1nc(NC(=O)CCc2c(C)nc3cc(O)nn3c2C)sc1C | -16.5
82 | Cc1cnn(C2CCCN(C(=O)c3ccc(N4CCCC4)nc3)C2)c1 (stereo not given) | -7.94
83 | CCOc1ccc(Cl)c(C(=O)N2CCN(CC(C)(C)O)CC2)n1 | -12.6
84 | Cc1ccc(F)c(NS(=O)(=O)c2cc(C(=O)O)oc2C)c1 | -10
85 | CN(C(=O)C1CCCC1)C(c1cccc(F)c1)c1ccccn1 (stereo not given) | 14.2
86 | CC(C)c1nc(CN2CCCN(c3nccs3)CC2)no1 | 6.41
87 | CC(=O)N1CCC(Nc2cc(F)ccc2OCC2CCCO2)CC1 (stereo not given) | 11.4
88 | COCCN1CCC(NCc2cc(F)ccc2F)C1 (stereo not given) | 22.5
89 | CCc1noc(CN2CCCN(Cc3cccs3)CC2)n1 | -11.1
90 | Cc1cc(C)c(C(=O)N2CCOCC2c2c(C)nn(C)c2C)o1 (stereo not given) | -12.3
91 | CNC(=O)COc1ccc(CNc2cncc(-n3cccn3)n2)cc1 | -16.8
92 | CCCc1noc(CN2CCN(c3nccs3)CC2)n1 | -6.87

Row | Structure (SMILES) | cytotoxicity at 70.5 h [%]
93 | COc1ncccc1NC(=O)N(Cc1ccc(C(N)=O)cc1)C1CC1 | -12.7
94 | COc1ncccc1NC(=O)N(Cc1ccco1)C1CC1 | -14.3
95 | COc1ncccc1NC(=O)N(CC(C)C)C1CC1 | -8.09
96 | COC(=O)Nc1ccc(CNc2cncc(-n3cccn3)n2)cc1 | -18.2
97 | CC(C)OCc1ccc(CNc2cncc(-n3cccn3)n2)cc1 | -5.97
98 | CCCOc1ccc(CNc2cncc(-n3cccn3)n2)cc1 | -6.6
99 | CCN(CC)C(=O)c1ccc(CNc2cncc(-n3cccn3)n2)cc1 | -7.26
100 | CN(C)c1cc(CNc2cncc(-n3cccn3)n2)ccn1 | -15.7
101 | O=C(Nc1cc(C(F)(F)F)c[nH]c1=O)N1CCOCC1 | -12.9
102 | COC1CCN(C(=O)Nc2cc(C(F)(F)F)c[nH]c2=O)CC1 | -6.98
103 | O=C(c1ccsc1)N1CCC(Nc2cccnn2)CC1 | -3.37
104 | c1ccc(CN2CCN(c3ccc4nncn4n3)CC2)nc1 | -9.47
105 | c1ccc(CCN2CCN(c3ccc4nncn4n3)CC2)cc1 | -1.86
106 | Cc1ccc(NC2CCN(C(=O)c3ccc(F)c(C)c3)CC2)nn1 | 14.1
107 | COc1ncccc1NC(=O)N(C1CC1)C(C)C(C)C (stereo not given) | -13.6
108 | O=C(O)c1c[nH]c2cc(NS(=O)(=O)c3cccc(F)c3F)ccc12 | -9.73
109 | O=C(O)c1c[nH]c2cc(NS(=O)(=O)c3cc(F)ccc3Cl)ccc12 | -9.41
110 | Cc1ccc(F)cc1S(=O)(=O)Nc1ccc2c(C(=O)O)c[nH]c2c1 | 1.03
111 | O=C(CC(F)(F)F)Nc1cc(F)ccc1OCC1CCCO1 (stereo not given) | -11.3
112 | Cc1ccc(O)c(C(=O)N2CCOCC2c2c(C)nn(C)c2C)c1 (stereo not given) | -2.1
113 | CCCC(=O)N(C)C(c1cccc(F)c1)c1ccccn1 (stereo not given) | -3.08
114 | Cn1cc(CCN2CCOC(CNc3cccnn3)C2)cn1 (stereo not given) | 21.9
115 | COc1ccc(C(=O)N2CCN(CCO)CC2)c(F)c1 | -4.32
